Experimental data reported in PMC6979384, “Characterization of the plant homeodomain (PHD) reader family for their histone tail interactions” (Epigenetics & Chromatin, 2020).

What was measured:
Test in all cases: Histone peptide microarray
Type in all cases: binding, human
BPTF (PB) = conditions: GST-tagged BPTF (PB = PHD + Bromodomain); histone peptide array; arrays performed twice, n of 4
Procedure, shortened: (§1)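 GST-tagged PHD readers, 0.5 μM, probed on a microarray of 293 synthetic histone peptides carrying single or combinatorial PTMs (optimized Petell protocol). Signals are averaged over 4 replicates and expressed as relative binding.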

PHF23 = conditions: GST-tagged PHF23; histone peptide array; arrays performed twice, n of 4
Procedure, shortened: as §1

CHD4 (PPCC) = conditions: GST-tagged CHD4 (PPCC = Dual PHD + Dual Chromodomain); histone peptide array; arrays performed twice, n of 4
Procedure, shortened: as §1

PHF2 = conditions: GST-tagged PHF2; histone peptide array; arrays performed twice, n of 4
Procedure, shortened: as §1

PHF21A = conditions: GST-tagged PHF21A; histone peptide array; arrays performed twice, n of 4
Procedure, shortened: as §1

KDM5A (3) = conditions: GST-tagged KDM5A (3); histone peptide array; arrays performed twice, n of 4
Procedure, shortened: as §1

DPF2 (PPC2W2) = conditions: GST-tagged DPF2 (PPC2W2 = Dual PHD + C2W2-type Zn-finger); histone peptide array; arrays performed twice, n of 4
Procedure, shortened: as §1

TAF3 = conditions: GST-tagged TAF3; histone peptide array; arrays performed twice, n of 4
Procedure, shortened: as §1

MORC3 (CW) = conditions: GST-tagged MORC3 (CW = CW-type Zn-finger); histone peptide array; arrays performed twice, n of 4
Procedure, shortened: as §1

ING1 = conditions: GST-tagged ING1; histone peptide array; arrays performed twice, n of 4
Procedure, shortened: as §1

KDM5A (1) = conditions: GST-tagged KDM5A (1); histone peptide array; arrays performed twice, n of 4
Procedure, shortened: as §1

ING3 = conditions: GST-tagged ING3; histone peptide array; arrays performed twice, n of 4
Procedure, shortened: as §1

ING4 = conditions: GST-tagged ING4; histone peptide array; arrays performed twice, n of 4
Procedure, shortened: as §1

MLL5 = conditions: GST-tagged MLL5; histone peptide array; arrays performed twice, n of 4
Procedure, shortened: as §1

PHF8 = conditions: GST-tagged PHF8; histone peptide array; arrays performed twice, n of 4
Procedure, shortened: as §1

KDM4C (TTP) = conditions: GST-tagged KDM4C (TTP = Tandem Tudor domain + PHD); histone peptide array; arrays performed twice, n of 4
Procedure, shortened: as §1

SP140L = conditions: GST-tagged SP140L; histone peptide array; arrays performed twice, n of 4
Procedure, shortened: as §1

ING2 = conditions: GST-tagged ING2; histone peptide array; arrays performed twice, n of 4
Procedure, shortened: as §1

TRIM66 (PB) = conditions: GST-tagged TRIM66 (PB = PHD + Bromodomain); histone peptide array; arrays performed twice, n of 4
Procedure, shortened: as §1

RAG2 = conditions: GST-tagged RAG2; histone peptide array; arrays performed twice, n of 4
Procedure, shortened: as §1

DIDO1 = conditions: GST-tagged DIDO1; histone peptide array; arrays performed twice, n of 4
Procedure, shortened: as §1

KDM5B (1) = conditions: GST-tagged KDM5B (1); histone peptide array; arrays performed twice, n of 4
Procedure, shortened: as §1

PHF13 = conditions: GST-tagged PHF13; histone peptide array; arrays performed twice, n of 4
Procedure, shortened: as §1

KDM7A = conditions: GST-tagged KDM7A; histone peptide array; arrays performed twice, n of 4
Procedure, shortened: as §1

KDM5B (3) = conditions: GST-tagged KDM5B (3); histone peptide array; arrays performed twice, n of 4
Procedure, shortened: as §1

AIRE (PP) = conditions: GST-tagged AIRE (PP); histone peptide array; arrays performed twice, n of 4
Procedure, shortened: as §1

BAZ2B = conditions: GST-tagged BAZ2B; histone peptide array; arrays performed twice, n of 4
Procedure, shortened: as §1

CHD5 (PCC) = conditions: GST-tagged CHD5 (PCC = PHD + Dual Chromodomain); histone peptide array; arrays performed twice, n of 4
Procedure, shortened: as §1

ING5 = conditions: GST-tagged ING5; histone peptide array; arrays performed twice, n of 4
Procedure, shortened: as §1

PHRF1 (RP) = conditions: GST-tagged PHRF1 (RP); histone peptide array; arrays performed twice, n of 4
Procedure, shortened: as §1

CHD5 (PPCC) = conditions: GST-tagged CHD5 (PPCC = Dual PHD + Dual Chromodomain); histone peptide array; arrays performed twice, n of 4
Procedure, shortened: as §1

Substance	Array Heatmap signal, BPTF (PB) (BPTF (PB))	Array Heatmap signal, PHF23 (PHF23)	Array Heatmap signal, CHD4 (PPCC) (CHD4 (PPCC))	Array Heatmap signal, PHF2 (PHF2)	Array Heatmap signal, PHF21A (PHF21A)	Array Heatmap signal, KDM5A (3) (KDM5A (3))	Array Heatmap signal, DPF2 (PPC2W2) (DPF2 (PPC2W2))	Array Heatmap signal, TAF3 (TAF3)	Array Heatmap signal, MORC3 (CW) (MORC3 (CW))	Array Heatmap signal, ING1 (ING1)	Array Heatmap signal, KDM5A (1) (KDM5A (1))	Array Heatmap signal, ING3 (ING3)	Array Heatmap signal, ING4 (ING4)	Array Heatmap signal, MLL5 (MLL5)	Array Heatmap signal, PHF8 (PHF8)	Array Heatmap signal, KDM4C (TTP) (KDM4C (TTP))	Array Heatmap signal, SP140L (SP140L)	Array Heatmap signal, ING2 (ING2)	Array Heatmap signal, TRIM66 (PB) (TRIM66 (PB))	Array Heatmap signal, RAG2 (RAG2)	also measured
H4K12ac + K16ac + K20me1: H4 11-27	0.3283	0.5291	0.5474	0.5516	0.4255	0.4519	0.6625	0.2511	0.3309	0.5716	0.4176	0.451	0.4334	0.5572	0.3408	0.4269	0.3459	0.5978	0.5407	0.2293	Array Heatmap signal, DIDO1 (DIDO1): 0.7187; Array Heatmap signal, KDM5B (1) (KDM5B (1)): 0.5461; Array Heatmap signal, PHF13 (PHF13): 0.5671; Array Heatmap signal, KDM7A (KDM7A): 0.3032; Array Heatmap signal, KDM5B (3) (KDM5B (3)): 0.4151; Array Heatmap signal, AIRE (PP) (AIRE (PP)): 0.384; Array Heatmap signal, BAZ2B (BAZ2B): 0.4211; Array Heatmap signal, CHD5 (PCC) (CHD5 (PCC)): 0.6765; Array Heatmap signal, ING5 (ING5): 0.3345; Array Heatmap signal, PHRF1 (RP) (PHRF1 (RP)): 0.4296; Array Heatmap signal, CHD5 (PPCC) (CHD5 (PPCC)): 0.5143
H4K12ac + K16ac + K20me2: H4 11-27	0.3936	0.5618	0.5676	0.4604	0.4824	0.5092	0.6546	0.2922	0.4076	0.5241	0.4994	0.5264	0.4756	0.5834	0.3877	0.537	0.3577	0.6089	0.6093	0.281	Array Heatmap signal, DIDO1 (DIDO1): 0.7262; Array Heatmap signal, KDM5B (1) (KDM5B (1)): 0.6899; Array Heatmap signal, PHF13 (PHF13): 0.6561; Array Heatmap signal, KDM7A (KDM7A): 0.418; Array Heatmap signal, KDM5B (3) (KDM5B (3)): 0.5172; Array Heatmap signal, AIRE (PP) (AIRE (PP)): 0.4913; Array Heatmap signal, BAZ2B (BAZ2B): 0.5022; Array Heatmap signal, CHD5 (PCC) (CHD5 (PCC)): 0.8229; Array Heatmap signal, ING5 (ING5): 0.405; Array Heatmap signal, PHRF1 (RP) (PHRF1 (RP)): 0.4498; Array Heatmap signal, CHD5 (PPCC) (CHD5 (PPCC)): 0.6049
H4K12ac + K16ac + K20me3: H4 11-27	0.3647	0.5129	0.6123	0.4705	0.52	0.4096	0.7109	0.2674	0.4027	0.5304	0.5006	0.4869	0.5105	0.5614	0.3563	0.5508	0.368	0.5812	0.6534	0.2525	Array Heatmap signal, DIDO1 (DIDO1): 0.6408; Array Heatmap signal, KDM5B (1) (KDM5B (1)): 0.6527; Array Heatmap signal, PHF13 (PHF13): 0.6523; Array Heatmap signal, KDM7A (KDM7A): 0.4502; Array Heatmap signal, KDM5B (3) (KDM5B (3)): 0.5038; Array Heatmap signal, AIRE (PP) (AIRE (PP)): 0.5868; Array Heatmap signal, BAZ2B (BAZ2B): 0.5532; Array Heatmap signal, CHD5 (PCC) (CHD5 (PCC)): 0.9097; Array Heatmap signal, ING5 (ING5): 0.3933; Array Heatmap signal, PHRF1 (RP) (PHRF1 (RP)): 0.4386; Array Heatmap signal, CHD5 (PPCC) (CHD5 (PPCC)): 0.6012
